Values of other authors, collected in PubChem BioAssay AID1259409 (Chemical Carcinogenesis Research Information System (CCRIS), 2018).

Tested on: rodent chemically induced tumor inhibition, incidence and multiplicity
Assay: CCRIS tumor inhibitor studies
Details: Promoter: NONE USED
Source text: The CCRIS database contains chemical records with carcinogenicity, mutagenicity, tumor promotion, and tumor inhibition test results. It was developed by the National Cancer Institute (NCI). Data are derived from studies cited in primary journals, current awareness tools, NCI reports, and other sources. Test results have been reviewed by experts in carcinogenesis and mutagenesis.
CCRIS provides historical information from the years 1985 - 2011. It is no longer updated.
This is an archive assay for CCRIS tumor inhibitor studies.

CC(C(=O)O)c1ccc(-c2ccccc2)c(F)c1 (centres undefined)
tumour outcome (control, treated, inhibition, significance) (Carcinogen: N-METHYL-N-NITROSOUREA, 684-93-5, Dose [Inhibitor]: 31.25 MG/KG DIET DAILY STARTING 1 WK AFTER CARCINOGEN ADMINISTRATION AND CONTINUING THROUGH THE END OF THE STUDY (STUDY, Route [Inhibitor]: ORAL, Species: RAT, Strain/Sex: SPRAGUE-DAWLEY/FEMALE, Target Tissue: Type of Lesion: MAMMARY GLAND: CARCINOMA, Dose [Carcinogen]: 25 MG/KG BW ONCE): 91%, 60%, 34%, p<0.05
tumour outcome (control, treated, inhibition, significance) (Carcinogen: N-METHYL-N-NITROSOUREA, 684-93-5, Dose [Inhibitor]: 31.25 MG/KG DIET DAILY STARTING 1 WK AFTER CARCINOGEN ADMINISTRATION AND CONTINUING THROUGH THE END OF THE STUDY (STUDY, Route [Inhibitor]: ORAL, Species: RAT, Strain/Sex: SPRAGUE-DAWLEY/FEMALE, Target Tissue: Type of Lesion: MAMMARY GLAND: CARCINOMA, Dose [Carcinogen]: 50 MG/KG BW ONCE): 100%, 100%, 0%, not significant
tumour outcome (control, treated, inhibition, significance) (Carcinogen: N-METHYL-N-NITROSOUREA, 684-93-5, Dose [Inhibitor]: 31.25 MG/KG IN DIET STARTING 1 WK AFTER CARCINOGEN DOSE AND CONTINUING THROUGH THE END OF THE STUDY (STUDY DURATION: 180, Route [Inhibitor]: ORAL, Species: RAT, Strain/Sex: SPRAGUE-DAWLEY/FEMALE, Target Tissue: Type of Lesion: MAMMARY GLAND: CARCINOMA, Dose [Carcinogen]: 25 MG/KG BW ONCE): 91%, 60%, 34%, p<0.05
tumour outcome (control, treated, inhibition, significance) (Carcinogen: N-METHYL-N-NITROSOUREA, 684-93-5, Dose [Inhibitor]: 31.25 MG/KG IN DIET STARTING 1 WK AFTER CARCINOGEN DOSE AND CONTINUING THROUGH THE END OF THE STUDY (STUDY DURATION: 180, Route [Inhibitor]: ORAL, Species: RAT, Strain/Sex: SPRAGUE-DAWLEY/FEMALE, Target Tissue: Type of Lesion: MAMMARY GLAND: CARCINOMA, Dose [Carcinogen]: 50 MG/KG BW ONCE): 100%, 100%, 0%, not significant
tumour outcome (control, treated, inhibition, significance) (Carcinogen: N-METHYL-N-NITROSOUREA, 684-93-5, Dose [Inhibitor]: 62.5 MG/KG DIET DAILY STARTING 1 WK AFTER CARCINOGEN ADMINISTRATION AND CONTINUING THROUGH THE END OF THE STUDY (STUDY D, Route [Inhibitor]: ORAL, Species: RAT, Strain/Sex: SPRAGUE-DAWLEY/FEMALE, Target Tissue: Type of Lesion: MAMMARY GLAND: CARCINOMA, Dose [Carcinogen]: 25 MG/KG BW ONCE): 91%, 68%, 25%, p<0.1
tumour outcome (control, treated, inhibition, significance) (Carcinogen: N-METHYL-N-NITROSOUREA, 684-93-5, Dose [Inhibitor]: 62.5 MG/KG DIET DAILY STARTING 1 WK AFTER CARCINOGEN ADMINISTRATION AND CONTINUING THROUGH THE END OF THE STUDY (STUDY D, Route [Inhibitor]: ORAL, Species: RAT, Strain/Sex: SPRAGUE-DAWLEY/FEMALE, Target Tissue: Type of Lesion: MAMMARY GLAND: CARCINOMA, Dose [Carcinogen]: 50 MG/KG BW ONCE): 100%, 100%), 0%, not significant
tumour outcome (control, treated, inhibition, significance) (Carcinogen: N-METHYL-N-NITROSOUREA, 684-93-5, Dose [Inhibitor]: 62.5 MG/KG IN DIET STARTING 1 WK AFTER CARCINOGEN DOSE AND CONTINUING THROUGH THE END OF THE STUDY (STUDY DURATION: 180, Route [Inhibitor]: ORAL, Species: RAT, Strain/Sex: SPRAGUE-DAWLEY/FEMALE, Target Tissue: Type of Lesion: MAMMARY GLAND: CARCINOMA, Dose [Carcinogen]: 25 MG/KG BW ONCE): 91%, 68%, 25%, p<0.1
tumour outcome (control, treated, inhibition, significance) (Carcinogen: N-METHYL-N-NITROSOUREA, 684-93-5, Dose [Inhibitor]: 62.5 MG/KG IN DIET STARTING 1 WK AFTER CARCINOGEN DOSE AND CONTINUING THROUGH THE END OF THE STUDY (STUDY DURATION: 180, Route [Inhibitor]: ORAL, Species: RAT, Strain/Sex: SPRAGUE-DAWLEY/FEMALE, Target Tissue: Type of Lesion: MAMMARY GLAND: CARCINOMA, Dose [Carcinogen]: 50 MG/KG BW ONCE): 100%, 100%, 0%, not significant

C/C1=C\C=C(\C(C)C)[C@@H](O)C/C(C)=C/CC/C(C)=C/CC1
tumour outcome (control, treated, inhibition, significance) (Carcinogen: N-METHYL-N-NITROSOUREA, 684-93-5, Dose [Inhibitor]: 0.01% IN DIET BEGINNING 1 WK POST LAST CARCINOGEN DOSE (STUDY DURATION: 26 WK), Route [Inhibitor]: ORAL, Species: RAT, Strain/Sex: CD-FISCHER/FEMALE, Target Tissue: Type of Lesion: LARGE INTESTINE: TUMOR, Dose [Carcinogen]: 2 MG IN WATER 3/WK FOR 3 WK): 22/26 (85%), 15/26 (58%), 32%, p<0.01-p<0.05
tumour outcome (control, treated, inhibition, significance) (Carcinogen: N-METHYL-N-NITROSOUREA, 684-93-5, Dose [Inhibitor]: 0.01% IN DIET BEGINNING WEEK 1 AND CONTINUING FOR DURATION OF STUDY (STUDY DURATION: 26 WK), Route [Inhibitor]: ORAL, Species: RAT, Strain/Sex: CD-FISCHER/FEMALE, Target Tissue: Type of Lesion: LARGE INTESTINE: TUMOR, Dose [Carcinogen]: 2 MG IN WATER 3/WK FOR WEEKS 1-3): 22/26 (85%), 13/26 (50%), 41%, p<0.01-p<0.05
tumour outcome (control, treated, inhibition, significance) (Carcinogen: N-NITROSOBIS(2-HYDROXYPROPYL)AMINE, 53609-64-6, Dose [Inhibitor]: 0, 0.01% IN DIET FOR 27 WK (STUDY DURATION: 27 WK), Route [Inhibitor]: ORAL, Species: HAMSTER, Strain/Sex: SYRIAN/FEMALE, Target Tissue: Type of Lesion: PANCREAS: TUMOR, Dose [Carcinogen]: 500 MG/KG IN OLIVE OIL 1/WK FOR 27 WK): 11/22 (50%), 4/20 (20%), 60%, p<0.05

CCS(=O)(=O)c1ccc(/C=C(\C)c2ccc3c(c2)C(C)(C)CCC3(C)C)cc1
tumour outcome (control, treated, inhibition, significance) (Carcinogen: 7,12-DIMETHYLBENZ[A]ANTHRACENE, 57-97-6, Dose [Inhibitor]: 0, 3 MG/KG/D IN FEED REDUCED AFTER 4 WK TO 2.2 MG/KG/D (STUDY DURATION: 13 WK), Route [Inhibitor]: ORAL, Species: RAT, Strain/Sex: SPRAGUE-DAWLEY/FEMALE, Target Tissue: Type of Lesion: MAMMARY GLAND: TUMOR, Dose [Carcinogen]: 15 MG IN ARACHIS OIL ONCE AT 50 D OF AGE): 96%, 73%, 24%, not calculated

CCCCCCCCCCCCN=C=S
tumour outcome (control, treated, inhibition, significance) (Carcinogen: 4(METHYLNITROSAMINO)-1-(3-PYRIDYL)-1-BUTANONE, 64091-91-4, Dose [Inhibitor]: 0, 1 UMOL IN 0.1 ML CORN OIL ONCE 2 HR PRIOR TO CARCINOGEN DOSE (STUDY DURATION: 16 WK), Route [Inhibitor]: GAVAGE, Species: MOUSE, Strain/Sex: STRAIN-A/FEMALE, Target Tissue: Type of Lesion: LUNG: ADENOMA, Dose [Carcinogen]: 10 UMOL IN 0.1 ML SALINE ONCE): 100%, 35%, 65%, p<0.001
tumour outcome (control, treated, inhibition, significance) (Carcinogen: 4-(METHYLNITROSAMINO)-1-(3-PYRIDYL)-1-BUTANONE, 64091-91-4, Dose [Inhibitor]: 0, 1 UMOL ONCE 2 HR PRIOR TO CARCINOGEN DOSE (STUDY DURATION: 16 WK), Route [Inhibitor]: GAVAGE, Species: MOUSE, Strain/Sex: STRAIN-A/FEMALE, Target Tissue: Type of Lesion: LUNG: ADENOMA, Dose [Carcinogen]: 10 UMOL IN 0.1 ML SALINE ONCE): 100%, 35%, 65%, p<0.05
tumour outcome (control, treated, inhibition, significance) (Carcinogen: 4-(METHYLNITROSAMINO)-1-(3-PYRIDYL)-1-BUTANONE, 64091-91-4, Dose [Inhibitor]: 0, 5 UMOL ONCE 2 HR PRIOR TO CARCINOGEN DOSE (STUDY DURATION: 16 WK), Route [Inhibitor]: GAVAGE, Species: MOUSE, Strain/Sex: STRAIN-A/FEMALE, Target Tissue: Type of Lesion: LUNG: ADENOMA, Dose [Carcinogen]: 10 UMOL IN 0.1 ML SALINE ONCE): 100%, 25%, 75%, p<0.05

CCCCCCCCCCCCO
tumour outcome (control, treated, inhibition, significance) (Carcinogen: 4-(METHYLNITROSAMINO)-1-(3-PYRIDYL)-1-BUTANONE, 64091-91-4, Dose [Inhibitor]: 0, 1 UMOL IN 0.1 ML CORN OIL ONCE 2 HR PRIOR TO CARCINOGEN DOSE (STUDY DURATION: 16 WK), Route [Inhibitor]: GAVAGE, Species: MOUSE, Strain/Sex: STRAIN-A/FEMALE, Target Tissue: Type of Lesion: LUNG: ADENOMA, Dose [Carcinogen]: 10 UMOL IN 0.1 ML SALINE ONCE): 100%, 100%, 0%, not significant

CC1=C(O)C(=O)CO1
tumour outcome (control, treated, inhibition, significance) (Carcinogen: BENZO[A]PYRENE, 50-32-8, Dose [Inhibitor]: 0, 25 PPM IN DIET FOR 17 WK BEGINNING 1 WK POST CARCINOGEN TREATMENT (STUDY DURATION: 21 WK), Route [Inhibitor]: ORAL, Species: MOUSE, Strain/Sex: ICR/FEMALE, Target Tissue: Type of Lesion: FORESTOMACH: TUMOR, Dose [Carcinogen]: 1.5 MG IN 0.2 ML CORN OIL 1/WK FOR 4 WK): 90%, 80%, 11%, not significant
tumour outcome (control, treated, inhibition, significance) (Carcinogen: BENZO[A]PYRENE, 50-32-8, Dose [Inhibitor]: 0, 50 PPM IN DIET FOR 17 WK BEGINNING 1 WK POST CARCINOGEN TREATMENT (STUDY DURATION: 21 WK), Route [Inhibitor]: ORAL, Species: MOUSE, Strain/Sex: ICR/FEMALE, Target Tissue: Type of Lesion: FORESTOMACH: TUMOR, Dose [Carcinogen]: 1.5 MG IN 0.2 ML CORN OIL 1/WK FOR 4 WK): 90%, 85%, 6%, not significant
tumour outcome (control, treated, inhibition, significance) (Carcinogen: BENZO[A]PYRENE, 50-32-8, Dose [Inhibitor]: 0, 75 PPM IN DIET FOR 17 WK BEGINNING 1 WK POST CARCINOGEN TREATMENT (STUDY DURATION: 21 WK), Route [Inhibitor]: ORAL, Species: MOUSE, Strain/Sex: ICR/FEMALE, Target Tissue: Type of Lesion: FORESTOMACH: TUMOR, Dose [Carcinogen]: 1.5 MG IN 0.2 ML CORN OIL 1/WK FOR 4 WK): 90%, 80%, 11%, not significant
